Structures can show the parent of a compound that is named as a salt. Activity calls are given as the source filed them. The rule behind the calls is not given here.

Data set [1] concerns the target T1, Alpha glucosidase (Homo sapiens, UniProt O43451+P10253+P14410+Q2M2H8). Description: Inhibition of human alpha-glucosidase expressed in Saccharomyces cerevisiae using p-nitrophenyl-alpha-D-glucopyranoside as substrate after 15 mins.
Data set [2] in a line: Cytotoxicity against human Chang cells by SRB assay. Type of data set: cell-based. On the technique in general: Sulforhodamine B stains cellular protein and so reports cell mass.
In data set [3] the test system is A549. Description: Cytotoxicity against human A549 cells at 10 uM by SRB assay. Type of data set: functional, cell-based.
In data set [4] the test system is HeLa. In words: Cytotoxicity against human HeLa cells at 10 uM by SRB assay. Type of data set: functional, cell-based.
Data set [5] relates to HepG2. In words: Cytotoxicity against human HepG2 cells at 10 uM by SRB assay. Type of data set: functional, cell-based.
Data set [6] has as its target T1, Alpha glucosidase. In words: Inhibition of human alpha-glucosidase expressed in Saccharomyces cerevisiae at 10 uM using p-nitrophenyl-alpha-D-glucopyranoside as substrate after 15 mins by two-fold serial dilution method.
Data set [7] relates to HeLa. Description: Cytotoxicity against human HeLa cells by SRB assay. Type of data set: functional, cell-based.
Data set [8] has as its system HepG2. In words: Cytotoxicity against human HepG2 cells by SRB assay. Type of data set: functional, cell-based.
Data set [9] is described as follows: Cytotoxicity against human Chang cells at 10 uM by SRB assay. Type of data set: cell-based.
Data set [10] deals with A549. In words: Cytotoxicity against human A549 cells by SRB assay. Type of data set: functional, cell-based.

Consider `O=C1C=C(c2ccc(O)cc2)C(=O)C(O)=C1c1ccc(O)cc1`, for which the IC50 (in general, the concentration at which inhibition is half-maximal) against Alpha glucosidase [1] amounted to 22.7 µM. The CC50 – broadly, the concentration giving 50% cytotoxicity – in data set [2] was above 100 µM. Besides, the result in the data set with A549 [3], with HeLa [4] and in the data set with HepG2 [5] was inactive.

In the case of `COc1cc(-c2ccc(OCC(=O)O)cc2)c(OC)c(O)c1-c1ccc(O)cc1`, the outcome in the data set on A549 [3], with HeLa [4] and in the data set on HepG2 [5] was inactive.

In the case of `COc1cc(-c2ccc(OCC=C(C)C)cc2)c(OC)c(O)c1-c1ccc(OCC=C(C)C)cc1`, the inhibition result at Alpha glucosidase [6] is “inactive”. For the same compound, half-maximal cytotoxicity in data set [2] (CC50) was put at 31.1 µM. For the same compound, the figures for the IC50 in the data set with HeLa [7] and with HepG2 [8] were 2.76 µM and 4.1 µM, respectively. Further, the result with A549 [3] was inactive.

Take `COc1cc(-c2ccc(O)cc2)c(OC)c(O)c1-c1ccc(O)c(CC=C(C)C)c1`: the values for the IC50 on Alpha glucosidase [1] and in the data set with HepG2 [8] were 25.7 µM and 2.74 µM, respectively. For the same compound, it took 0.91 µM to reach half-maximal cytotoxicity in data set [2] (CC50). For the same compound, the outcome in the data set on A549 [3] and in the data set with HeLa [4] was inactive.

Consider `CCCOc1ccc(-c2cc(OC)c(-c3ccc(OCCC)cc3)c(O)c2OC)cc1`, for which the inhibition entry on Alpha glucosidase [6] was “inactive”. Besides, the result in the data set with A549 [3], with HeLa [4] and in the data set on HepG2 [5] was inactive. Besides, the Activity entry in data set [9] was “Non-Toxic”.

With `COc1cccc2c1C(=O)c1c(O)c3c(c(O)c1C2=O)C[C@@](O)(C(=O)CO)C[C@@H]3O[C@H]1C[C@H](N)[C@H](O)[C@H](C)O1` [DOXORUBICIN HYDROCHLORIDE], the IC50 with A549 [10] worked out at 0.16 µM.

Take `COc1cc(-c2ccc(OCC=C(C)C)cc2)c(OC)c(OCC=C(C)C)c1-c1ccc(OCC=C(C)C)cc1`: the inhibition entry on Alpha glucosidase [6] was “inactive”. Besides, the outcome in the data set on A549 [3], in the data set on HeLa [4] and with HepG2 [5] was inactive. Besides, the Activity result in data set [9] is listed as “Non-Toxic”.

With `COc1cc(-c2ccc(OCC=C(C)C)cc2)c(OC)c(OCC=C(C)C)c1-c1ccc(O)cc1`, the IC50 came to 53.1 µM against Alpha glucosidase [1], 3.36 µM in the data set with A549 [10], 3.37 µM with HeLa [7] and 5.26 µM in the data set with HepG2 [8]. In [2], this compound yielded a CC50 of 7.34 µM.

With `COc1cc(-c2ccc(OCCBr)cc2)c(OC)c(OCCBr)c1-c1ccc(O)cc1`, the IC50 is 6.67 µM against Alpha glucosidase [1], 3.06 µM in the data set with A549 [10], 1.58 µM with HeLa [7] and 3.85 µM in the data set with HepG2 [8]. Further, half-maximal cytotoxicity in data set [2] (CC50) was put at 5.05 µM.

For the compound `COc1cc(-c2ccc(O)cc2)c(OC)c(OC(=O)c2ccc(F)cc2)c1-c1ccc(O)cc1`, the result with A549 [3], with HeLa [4] and with HepG2 [5] was inactive. For the same compound, in data set [9], the Activity result was “Non-Toxic”.

On to `C#CCOc1ccc(-c2cc(OC)c(-c3ccc(O)cc3)c(OCC#C)c2OC)cc1`, for which the IC50 against Alpha glucosidase [1] is 20.1 µM; with A549 [10] it was 0.79 µM; in the data set with HeLa [7], 0.68 µM; with HepG2 [8] it was 1.23 µM. For the same compound, in data set [2], half-maximal cytotoxicity (CC50) was put at 2.31 µM.

Consider `C=CCOc1ccc(-c2cc(OC)c(-c3ccc(O)cc3)c(OCC=C)c2OC)cc1`, for which the IC50 was determined as 8.77 µM on Alpha glucosidase [1], 0.25 µM with A549 [10], 0.15 µM in the data set on HeLa [7] and 0.43 µM with HepG2 [8]. The CC50 in data set [2] is below 0.62 µM.

The compound `CCCOc1ccc(-c2c(OC)cc(-c3ccc(O)cc3)c(OC)c2OCCC)cc1` registered an IC50 against Alpha glucosidase [1] of 10.7 µM. This compound returned a CC50 in data set [2] of 13.1 µM. Further, the result in the data set with A549 [3], in the data set with HeLa [4] and with HepG2 [5] was inactive.

The compound `COc1cc(-c2ccc(OC(c3ccccc3)c3ccccc3)cc2)c(OC)c(O)c1-c1ccc(O)cc1` had a CC50 in [2] of 22.3 µM. The result with A549 [3], in the data set on HeLa [4] and with HepG2 [5] was inactive.

In turn, `C=CCOc1c(OC)c(-c2ccc(O)cc2)cc(OC)c1-c1ccc(O)cc1` registered an IC50 against Alpha glucosidase [1] of 83.8 µM. The outcome in the data set on A549 [3], in the data set on HeLa [4] and in the data set on HepG2 [5] was inactive. In addition, the Activity result in data set [9] was “Non-Toxic”.

As for `COc1cc(-c2ccc(OCCBr)cc2)c(OC)c(O)c1-c1ccc(O)cc1`, the IC50 at Alpha glucosidase [1] is 16.1 µM. The compound further displayed a CC50 in [2] of 95.4 µM. Also, the outcome in the data set with A549 [3], in the data set with HeLa [4] and in the data set with HepG2 [5] was inactive.

For `COc1cc(-c2ccc(OCCBr)cc2)c(OC)c(O)c1-c1ccc(OCCBr)cc1`, the inhibition result at Alpha glucosidase [6] is “inactive”. In addition, the result in the data set with A549 [3], in the data set with HeLa [4] and in the data set on HepG2 [5] was inactive. In addition, the Activity result in [9] is reported as “Non-Toxic”.

In turn, `COc1c(Cl)c(-c2ccc(O)cc2)c(OC)c(O)c1-c1ccc(O)cc1` displayed an IC50 on Alpha glucosidase [1] of 31.3 µM. The result with A549 [3], in the data set on HeLa [4] and in the data set on HepG2 [5] was inactive. Further, the Activity result in data set [9] is “Non-Toxic”.

As for `CCCOc1ccc(-c2cc(OC)c(-c3ccc(O)cc3)c(OCCC)c2OC)cc1`, the half-inhibitory concentration (IC50) turned out to be 8.69 µM against Alpha glucosidase [1], 0.26 µM in the data set on A549 [10], 0.18 µM with HeLa [7] and 0.49 µM with HepG2 [8]. The compound further yielded a CC50 in data set [2] of 0.87 µM.

With `COc1cc(-c2ccc(OCCC(C)C)cc2)c(OC)c(O)c1-c1ccc(O)cc1`, the IC50 against Alpha glucosidase [1] amounted to 14.3 µM. The result with A549 [3], in the data set on HeLa [4] and with HepG2 [5] was inactive. In addition, the Activity result in data set [9] was “Non-Toxic”.

`C=CCOc1ccc(-c2cc(OC)c(-c3ccc(O)cc3)c(O)c2OC)cc1` showed an IC50 at Alpha glucosidase [1] of 26.5 µM. Moreover, the outcome in the data set on A549 [3], in the data set with HeLa [4] and in the data set with HepG2 [5] was inactive. The Activity entry in data set [9] is “Non-Toxic”.

In turn, `COc1cc(-c2ccc(O)cc2)c(OC)c(OC(=O)c2ccco2)c1-c1ccc(O)cc1` returned an IC50 against Alpha glucosidase [1] of 35.4 µM. Besides, the result with A549 [3], with HeLa [4] and with HepG2 [5] was inactive. Also, the Activity entry in data set [9] is given as “Non-Toxic”.

With `CCCOc1ccc(-c2cc(OC)c(-c3ccc(OCCC)cc3)c(OCCC)c2OC)cc1`, the inhibition result on Alpha glucosidase [6] was “inactive”. Besides, the outcome in the data set with A549 [3], in the data set with HeLa [4] and in the data set on HepG2 [5] was inactive. For the same compound, the Activity entry in data set [9] is listed as “Non-Toxic”.

Compound `COc1cc(-c2ccc(OCc3ccc(-c4ccccc4)cc3)cc2)c(OC)c(O)c1-c1ccc(O)cc1` had an IC50 on Alpha glucosidase [1] of 12.2 µM. The CC50 in [2] was found to be 12.7 µM. For the same compound, the result with A549 [3], with HeLa [4] and with HepG2 [5] was inactive.

For `COc1cc(-c2ccc(OCCBr)cc2)c(OC)c(OCCBr)c1-c1ccc(OCCBr)cc1`, at Alpha glucosidase [6], the inhibition result was “inactive”. The result with A549 [3], in the data set with HeLa [4] and in the data set with HepG2 [5] was inactive. The Activity entry in [9] was “Non-Toxic”.

Take `COc1cc(-c2ccc(O)cc2)c(OC)c(O)c1-c1ccc(OCCBr)cc1`: the IC50 on Alpha glucosidase [1] was 18 µM. In [2], half-maximal cytotoxicity (CC50) was put at 54.4 µM. The outcome in the data set on A549 [3], with HeLa [4] and in the data set with HepG2 [5] was inactive.

For `C=CCOc1ccc(-c2cc(OC)c(-c3ccc(OCC=C)cc3)c(OCC=C)c2OC)cc1`, the inhibition result at Alpha glucosidase [6] is “inactive”. Moreover, 10.1 µM corresponded to half-maximal inhibition with HeLa [7] (IC50). Besides, the result in the data set on A549 [3] and in the data set with HepG2 [5] was inactive. Also, in data set [9], the Activity entry is “Non-Toxic”.

For `C=CCOc1ccc(-c2cc(OC)c(-c3ccc(OCC=C)cc3)c(O)c2OC)cc1`, the inhibition result on Alpha glucosidase [6] was “inactive”. For the same compound, the result in the data set with A549 [3], in the data set with HeLa [4] and with HepG2 [5] was inactive. Moreover, in data set [9], the Activity entry is on record as “Non-Toxic”.

In data set [2], `COc1cc(-c2ccc(O)cc2)c(OC)c(O)c1-c1ccc(OC(c2ccccc2)c2ccccc2)cc1` had a CC50 of 48.3 µM. Further, the outcome in the data set on A549 [3], in the data set with HeLa [4] and in the data set with HepG2 [5] was inactive.

Regarding `COc1cc(-c2ccc(OCCN3CCCC3)cc2)c(OC)c(O)c1-c1ccc(O)cc1`, the outcome with A549 [3], in the data set on HeLa [4] and in the data set with HepG2 [5] was inactive.

Turning to `C#CCOc1ccc(-c2cc(OC)c(-c3ccc(OCC#C)cc3)c(OCC#C)c2OC)cc1`, on Alpha glucosidase [6], the inhibition entry is “inactive”. Further, the result with A549 [3], in the data set with HeLa [4] and with HepG2 [5] was inactive. The Activity entry in data set [9] was “Non-Toxic”.

Turning to `CCCOc1ccc(-c2c(OC)cc(-c3ccc(O)cc3)c(OC)c2O)cc1`, the IC50 at Alpha glucosidase [1] worked out at 12.3 µM; in the data set with A549 [10] it was 10.3 µM. In addition, the outcome in the data set on HeLa [4] and in the data set with HepG2 [5] was inactive. Moreover, the Activity result in [9] is “Non-Toxic”.

`COc1cc(-c2ccc(O)cc2)c(OC)c(OC(C)=O)c1-c1ccc(O)cc1`: the outcome in the data set on A549 [3], in the data set on HeLa [4] and with HepG2 [5] was inactive. The Activity result in data set [9] is on record as “Non-Toxic”.

In the case of `COc1cc(-c2ccc(O)cc2)c(OC)c(OCCN2CCCC2)c1-c1ccc(O)cc1`, the result in the data set on A549 [3], in the data set on HeLa [4] and in the data set with HepG2 [5] was inactive.

For the origin of these results see ChEMBL document CHEMBL4196001, “Design, semisynthesis, α-glucosidase inhibitory, cytotoxic, and antibacterial activities of p-terphenyl derivatives” (Eur J Med Chem, 2018).
